# In patent publication US9187490B2, “Dimeric IAP inhibitors” (TetraLogic Pharmaceuticals Corporation, priority 2005, dated 2015):
# Read-outs that look alike come from different tables or passages of the source.
# Assays:
# XIAP-BIR3 = target: T1, XIAP-BIR3 (Homo sapiens, UniProt P98170); test: XIAP BIR-3 fluorescence polarization binding assay; conditions: read-out: KD Range
# T1 construct: 40 nM of XIAP-BIR3 for 15 min at RT
# Method: Following incubation, the polarization values (mP) were measured on a Victor^2V using a 485 nm excitation filter and a 520 nm emission filter. IC50 values were determined from the plot using nonlinear least-squares analysis using GraphPad Prism.
# [1] = Half life after single intravenous dose in rat; conditions: in vivo, single IV dose 1 mg/kg, FIG. 2, read-out: terminal elimination half life (converted)
# Method: The IV dose for each Smac mimetic was 1 mg/kg.
# MDA-MB-231 cells [2] = test: Cell proliferation (MTT assay) with and without TRAIL; format: cell-based; conditions: MDA-MB-231, MTT, FIG. 4
# MDA-MB-231 cells [3] = test: Colony formation assay with and without TRAIL; format: cell-based; conditions: MDA-MB-231, in combination with TRAIL
# Method: The ability of cells to form viable colonies was analyzed by adding various concentrations of the compound in the presence and absence of 0.4 ng/ml of TRAIL. Briefly, cells are seeded at 100 cells per well in a 12 well format in 2 ml of growth medium. The medium is removed after twenty-four hours and replaced with Smac mimetics at various concentrations in growth medium with 1% DMSO. After 72 hours on test, the concentrations are removed and replaced with 2 ml. of growth medium. The plates are returned to the incubator for 7-10 days at which time the colonies have multiplied to at least 10 cells per colony which can be counted by eye. The plates are stained with a 0.01% crystal violet solution (wt:vol. in H2O) for thirty minutes. The plates are washed with tap water to remove any residual crystal violet, dried and the colonies are counted. Inhibition data were analyzed using the sigmoidal dose-response (variable slope) equation in GraphPad Prism (GraphPad Software, San Diego, Calif.). The 50% inhibitory concentration (EC50) was the drug concentration that decreased the […] by 50% relative to control samples without drug.
# T98G cells = test: Cytotoxicity synergy study with topoisomerase inhibitors; format: cell-based
# Excerpt: The highest amount of synergy is 50-60% more cell death than would be expected by adding together the cytotoxicity of each compound alone. […] The total synergistic volume was 457, with the greatest synergism being about 30%-40% more cell death than would be expected by adding together the individual Smac and topotecan cytotoxicities, between Entry 1 and a topoismerase inhibitor, such as topotecan.
# (§1) To further assess potential drug-drug interactions a matrix of the permutations of two-fold serial dilutions of each drug and a Snac mimetic were tested as well as the activity of each compound alone using a program called MacSynergy II (Prichard, M. N., K. R. Aseltine, and C. Shipman, Jr. 1993. MacSynergy II. User's manual. Univ. of Michigan, Ann Arbor). The synergy with paclitaxel and the Smac peptidomimetic Entry 122 in OVCAR3 cells was tested. The highest amount of synergy detected is 10-20% which indicates greater cell death than would be expected by adding together the cytotoxicity of either compound alone.
# SK-OV-3 cells = test: 72 hour MTT cell survival assay, SK-OV-3; format: cell-based; conditions: SK-OV-3 ovarian cancer cell line, FIG. 3
# Method: (§2) A 72 hour MTT assay, as previously described by Hansen, M. B., Nielsen, S. E., and Berg, K. ((1989) J. Immunol. Methods 119, 203-210) and incorporated herein by reference in its entirety, was used to differentiate between a specific versus non-specific effect on cell killing by Smac mimetics. Briefly, SK-OV-3 cells were seeded in 96-well plates in McCoy's medium containing 10% fetal bovine serum […] (20,000 per well) and incubated overnight at 37 C. […] 50 microliters of 5 mg/mL MTT reagent was then added to each well and the plates were incubated at 37° C. for 3 hours. At the end of the incubation period, 50 microliters of DMSO was added to each well to dissolve cells and the optical density (OD) of the wells was measured using a microplate reader (Victor^2 1420, Wallac, Finland) at 535 nm. Cell survival (CS) was calculated by the following equation CS=(OD treated well/mean OD control wells)×100%
# The EC50, defined as the drug concentration that results in 50% CS, was derived by calculating the point where the dose-response curve crosses the 50% CS point using GraphPad Prism.
# MRC-5 cells = test: 72 hour MTT assay, normal cell control MRC-5; format: cell-based; conditions: MRC-5 normal diploid cell line, FIG. 3
# Method: as §2
# Smac mimetic Entry 116 was tested using an ovarian cancer cell line, SK-OV-3, and MRC-5 cells were used as a normal cell control.
# OVCAR-3 cells = test: Cytotoxicity synergy matrix (MacSynergy II) with paclitaxel, cisplatin, carboplatin; format: cell-based
# Method: as §1
# Paclitaxel the dosage ranged from about 0.0 to about 500.0 nM. For Entry 122, the dosage range was about 125.0 to about 8000.0 nM. The total synergistic volume was about 170.
# The synergy with cisplatin and the Smac peptidomimetics in OVCAR-3 cells was tested The highest amount of synergy is 40-50% more cell death than would be expected by adding together the cytotoxicity of each compound alone. […] For cisplatin the dosage range was about 0.0 to about 166,500.0 nM. For Entry 122, the dosage range was about 500.0 to about 32,000.0 nM. The total synergistic volume was about 434. Similar tests were performed with the combination of carboplatin and Smac mimetics. Synergy between a Smac peptidomimetic, Entry 122, and carboplatin.
# [4] = with topotecan and camptothecin
# T1 sequence (P98170 241-356 limits assumed): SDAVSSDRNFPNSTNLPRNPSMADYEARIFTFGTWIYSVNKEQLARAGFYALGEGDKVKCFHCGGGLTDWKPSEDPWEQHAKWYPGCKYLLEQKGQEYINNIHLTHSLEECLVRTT
smiles,measurement,setting,value
"CC(N)C(=O)NC(C(=O)N1CCCC1Cc1c(-c2ccc(-c3oc4ccccc4c3CC3CCCN3C(=O)C(NC(=O)C(C)N)C(C)C)cc2)oc2ccccc12)C(C)C (single isomer, unassigned) [Entry 1]",Kd,"XIAP-BIR3; 5 nM AbuRPF-K(5-Fam)-NH2, 40 nM XIAP-BIR3, 15 min RT, pH 7.5",< 100 nM
same,half-life,[1],~6 h
same,increase in the antiproliferative effect in combination with TRAIL,MDA-MB-231 cells [2]; in combination with TRAIL,1000 fold
same,"antiproliferative effect, Smac mimetic alone",MDA-MB-231 cells [2]; without TRAIL,resistant
same,increase in the cell killing as detected by loss in colony formation,MDA-MB-231 cells [3],100 fold
same,total synergistic volume,T98G cells; with a topoisomerase inhibitor such as topotecan,457
same,"greatest synergism, more cell death than expected by adding the individual cytotoxicities",T98G cells; with topotecan,30%-40%
same,"highest amount of synergy, more cell death than expected by adding the cytotoxicity of each compound alone",T98G cells; [4],50-60%
same,synergy with topoisomerase inhibitors,T98G cells; [4],act synergistically
CN[C@@H](C)C(=O)N[C@H](C(=O)N1C[C@@H](O)C[C@H]1Cc1c(-c2[nH]c3cc(F)ccc3c2C[C@@H]2C[C@H](O)CN2C(=O)[C@@H](NC(=O)[C@H](C)NC)[C@@H](C)OC)[nH]c2cc(F)ccc12)[C@@H](C)OC [Entry 116],Kd,XIAP-BIR3; Example 7 series,< 100 nM
same,more effective at killing tumor cells than negative controls,SK-OV-3 cells,"100,000 ×"
same,effect on normal (non-tumorigenic) cells,MRC-5 cells,unaffected
CN[C@@H](C)C(=O)N[C@H](C(=O)N1CCC[C@H]1Cc1cn(CCOCCn2cc(C[C@@H]3CCCN3C(=O)[C@@H](NC(=O)[C@H](C)NC)C3CCCCC3)c3ccccc32)c2ccccc12)C1CCCCC1 [Entry 122],Kd,XIAP-BIR3; Example 9 series,< 100 nM
same,half-life,[1],≤ 6 h
same,total synergistic volume,"OVCAR-3 cells; OVCAR3, paclitaxel 0.0-500.0 nM, compound 125.0-8000.0 nM",about 170
same,highest amount of synergy detected,"OVCAR-3 cells; OVCAR3, with paclitaxel",10-20%
same,total synergistic volume,"OVCAR-3 cells; OVCAR-3, cisplatin 0.0-166,500.0 nM, compound 500.0-32,000.0 nM",about 434
same,synergy with carboplatin,"OVCAR-3 cells; OVCAR-3, with carboplatin",Synergy
same,"highest amount of synergy, more cell death than expected","OVCAR-3 cells; OVCAR-3, with cisplatin",40-50%
CN[C@@H](C)C(=O)N[C@H](C(=O)N1CCC[C@H]1Cc1cn(CCOCCn2cc(C[C@@H]3CCCN3C(=O)[C@@H](NC(=O)[C@H](C)NC)C3CCCCC3)c3ccc(F)cc32)c2cc(F)ccc12)C1CCCCC1 [Entry 123],Kd,XIAP-BIR3; Example 9 series,< 100 nM
same,half-life,[1],≤ 6 h
